A word on the EC50: it is the concentration needed to bring the measured effect to its halfway point.

One assay deals with MIA-PaCa-2 cells. The assay can be described thus: Cell viability (cell-titer-glo), MIA-PaCa-2. Format: cell-based. Conditions: MIA-PaCa 2 cell line, 48 to 72 h, read-out: Estimated EC50. As to the method:
(§1) The cell lines used in this study were purchased from ATCC (https://www.atcc.org, accessed on 18 December 2023) and maintained under standard conditions at 37 °C with a 5% CO2 atmosphere. NCI-H-358 cells were cultivated in 1X RPMI 1640 medium, while MIA-PaCa2 cells were cultured using 1X DMEM. Both culture media were supplemented with 10% fetal bovine serum and 1X Penicillin/Streptomycin (Gibco). For culturing the Melma-3M cells, IMDM media fortified with 20% fetal bovine serum and 1X Penicillin/Streptomycin was used. […]
(§2) Briefly, for cell viability experiments, after splitting, cells from each respective cell line were plated onto 96-well plates (MSP, Cat # CT-229185) at a density of about 1 × 10^4 cells/mL and 200 µL per well using the appropriate cell culture media after about 24 h at 37 °C, the cell media in each 96-well plate were replaced with media containing the various test compounds at varying concentrations. […] Each plate was gently mixed for ca. 10 min at room temperature and then transferred to a plate reader (Bio-Tek, Synergy HTX, Winooski, VT, USA, multimode reader) for chemiluminescence measurement as a proportional indicator of cell viability.
(§3) TB003 and TB008 have also been evaluated for cell growth inhibition and killing using two cell lines, NCI-H358, a non-small cell lung carcinoma-derived cell line, and MIA-PaCa-2, a pancreatic carcinoma-derived cell line. […]

In another assay the test system is NCI-H358 cells. Kind of assay: Cell viability (cell-titer-glo), NCI-H358. Format: cell-based. To be noted: Homo sapiens, NIH H-358 cell line, 48 to 72 h, read-out: Estimated EC50. As to the method: as §1, §2, §3

Read-outs that look alike come from different tables or passages of the source.

Consider `O=C1[O][Pt]2([NH][C@@H]3CCCC[C@H]3[NH]2)[O]C1=O` [Oxaliplatin, oxaliplatin], for which the EC50 with MIA-PaCa-2 cells was 100 µM.

Turning to `CC(=O)O[C@H]1C(=O)[C@@]2(C)[C@H]([C@H](OC(=O)c3ccccc3)[C@]3(O)C[C@H](OC(=O)[C@H](O)[C@@H](NC(=O)c4ccccc4)c4ccccc4)C(C)=C1C3(C)C)[C@]1(OC(C)=O)CO[C@@H]1C[C@@H]2O` [Paclitaxel, paclitaxel], the values for the EC50 in the assay on NCI-H358 cells and in the assay on MIA-PaCa-2 cells (Homo sapiens) were 75 µM and 10 µM, respectively.

The values are drawn from paper PMC10968976, “Targeting CDK9 in Cancer: An Integrated Approach of Combining In Silico Screening with Experimental Validation for Novel Degraders” (Current Issues in Molecular Biology, 2024).
